Test results as given in patent US7238710B2, “EP4 receptor agonist, compositions and methods thereof” (Merck Frosst Canada, Ltd., priority 2003, dated 2007).
“Also recorded” adds a separate entry of the source.

Legend:
[1] = system: ROS 17/2.8 rat osteosarcoma cells; test: Intracellular cAMP in ROS 17/2.8 cells; type: cell-based
Procedure: (§1) RCT-1 and RCT-3 are clonal cell lines immortalized by SV-40 large T antigen from cells released from fetal rat calvair by a cmbination collagenase/hyaluronidase digestion. RCT-1 cells, derived from cells released during the first 10 minutes of digestion (fraction I), are cultured in RPMI 1640 medium (BRL) with 10% fetal bovine serum and 0.4 mg/ml G418 (BRL). These cells differentiate and express osteoblastic features upon retinoic acid treatment. RCT-3 cells, immortalized from osteoblast-enriched fraction III cells, are cultured in F-12 medium (BRL) with 5% Fetal bovine serum and 0.4 mg/ml G418. TRAB-11 cells are also immortalized by SV40 large T antigen from adult rat tibia and are cultured in RPMI 1640 medium with 10% FBS and 0.4 mg/ml G418. ROS 17/2.8 rat osteosarcoma cells are cultured in F-12 containing 5% FBS. Osteoblast-enriched (fraction III) primary fetal rat calvaria cells are obtained by collagenase/hyaluronidase digestion of calvariae of 19 day-old rat fetuses. See Rodan et al., Growth stimulation of rat calvaria osteoblastic cells by acidic FGF, Endocrinology, 121, 1919-1923 (1987), which is incorporated by reference herein in its entirety. Cells are released during 30-50 minutes digestion (fraction III) and are cultured in F-12 medium containing 5% FBS. […]

RCT-3 cells [2] = test: Intracellular cAMP in RCT-3 cells; type: cell-based, rat
Procedure: as §1

TRAB-11 cells = test: Intracellular cAMP in TRAB-11 cells; type: cell-based, rat
Procedure: as §1

RP-1 periosteal cells = test: EP4 and EP2 mRNA expression (Northern blot) in RP-1 periosteal cells; type: cell-based, rat; details: RP-1 cells
Procedure: RP-1 periosteal cells are spontaneously immortalized from primary cultures of periosteal cells from tibae of 4-week old Sprague-Dawley rats and are cultured in DMEM (BRL, Gaithersburg, Md.) with 10% fetal bovine serum (JRH Biosciences, Lenexa, Kans.).
(§2) Total RNA is extracted from the tibial metaphysis or diaphysis and calvaria using a guanidinium isothiocyanate-phenol-chloroform method after pulverizing frozen bone samples by a tissue homogenizer. See P. Chomczynski et al., Single-step method of RNA isolation by acid guanidium thiocyanate-phenol-chloroform extraction., Analyt Biochem, 162, 156-159 (1987), which is incorporated by reference herein in its entirety. RNA samples ([…]) are separated on 0.9% agarose/formaldehyde gels and transferred onto nylon membranes (Boehringer Mannheim, Germany). Membranes are prehybridized in Hybrisol I (Oncor, Gaithersburg, Md.) and 0.5 mg/ml sonicated salmon sperm DNA (Boehringer) at 42° C. for 3 hours and are hybridized at 42° C. with rat EP2 and mouse EP4 cDNA probes labeled with [^32P]dCTP (Amersham, Buckinghamshire, UK) by random priming using the rediprime kit (Amersham). After hybridization, membranes are washed 4 times in 2×SSC+0.1% SDS at room temperature for a total of 1 hour and once with 0.2×SSC+0.1% SDS at 55° C. for 1 hour and then exposed to Kodak XAR 2 film at −70° C. using intensifying screens. After developing the films, bound probes are removed twice with 0.1% SDS at 80° C. and membranes are hybridized with a human GAPDH (Glyceraldehyde 3-Phosphate Dehydrogenase) cDNA probe (purchased from Clontech, Palo Alto, Calif.) for loading control.
PGE2 enhances its own production via upregulation of cyclooxygenase 2 expression in osteoblasts and in bone tissue thus autoamplifying its own effects. PGE2 also increases the levels of EP4 mRNA. RP-1 cells are immortalized from a primary culture of adult rat tibia periosteum is examined. These cells express osteoblast phenotypic markers upon confluence and form mineralized bone matrix when implanted in nude mice. […]

RCT-3 cells [3] = test: EP4 mRNA expression (Northern blot) in RCT-3 cells; type: cell-based, rat
Procedure: as §1

[4] = system: bone tissue (tibia, calvaria); test: EP4 and EP2 mRNA levels in vivo in bone tissue (Northern blot); design: species or system rat
Procedure: (§3) For mRNA localization experiments, 5-week old Sprague-Dawley rats (Charles River) are euthanized by CO2, their tibiae and calvariae are excised, cleaned of soft tissues and frozen immediately in liquid nitrogen. For EP4 regulation experiments, 6-week old rats are given a single injection of either vehicle (7% ethanol in sterile water) or an anabolic dose of PGE2 (Cayman Chemical, Ann Arbor, Mich.), 3-6 mg/kg in the same vehicle) intraperitoneally. Animals are euthanized at several time points post-injection and their tibiae and calvariae, as well as samples from lung and kidney tissues are frozen in liquid nitrogen.
as §2, with “control. […]” for “control.”

bone marrow cells = test: In situ hybridization of EP4 mRNA in bone tissue; type: in vivo, rat; details: rats, single anabolic dose
Procedure: as §3
Frozen tibiae are sectioned coronally at […] thickness and sections are mounted on charged slides (Probe On Plus, Fisher Scientific, Springfield, N.J.) and are kept at −70° C. until hybridization. cRNA probes are labeled with ^35S-UTPgS (ICN, Costa Mesa, Calif.) using a Riboprobe II kit (Promega Madison, Wis.). Hybridization is performed overnight at 50° C. […]
In situ hybridization is used in order to localize cells expressing EP4 in bone. In control experiment (vehicle-injected) rats, low expression of EP4 is detected in bone marrow cells. […]

[5] = five-week-old male rats, injected 3-6 mg/Kg

Question: What does the source list for `CCCCC[C@H](O)/C=C/[C@H]1[C@H](O)CC(=O)[C@@H]1C/C=C\CCCC(=O)O` [PGE2]?
Answer: effect on intracellular cAMP [1]: no effect; effect on intracellular cAMP (RCT-3 cells [2]): markedly induced; effect on intracellular cAMP (TRAB-11 cells): markedly induced; EP2 mRNA (RP-1 periosteal cells): not expressed; also recorded: does not induce; EP4 mRNA levels (RP-1 periosteal cells; 10^-6 M): rapidly increases; time of peak EP4 mRNA levels after treatment (RP-1 periosteal cells; 10^-6 M): 2 h; EP4 mRNA levels (RCT-3 cells [3]): no effect; EP4 mRNA levels in the tibial diaphysis [4, 5]: rapidly increased; time of peak EP4 mRNA levels in the tibial diaphysis after injection [4, 5]: 2 h; EP2 mRNA in bone tissue ([4]; rats): does not induce; expression of EP4 in bone marrow cells (bone marrow cells): increased
